The results in this text go back to ChEMBL document CHEMBL3352410 (J Med Chem, 2014).

The target in experiment [1] is T1, Mu-type opioid receptor (Homo sapiens, UniProt P35372). In words: Binding affinity to human mu opioid receptor expressed in CHO cells. Format: cell-based.
Experiment [2] concerns the target T2, Kappa-type opioid receptor (Homo sapiens, UniProt P41145). As to the kind of experiment: Binding affinity to human kappa opioid receptor expressed in CHO cells. Format: cell-based.
Experiment [3] concerns the target T3, Delta-type opioid receptor (Homo sapiens, UniProt P41143). As to the kind of experiment: Binding affinity to human delta opioid receptor expressed in CHO cells. Format: cell-based.
Experiment [4] addresses T1, Mu-type opioid receptor. In words: Antagonist activity at human mu opioid receptor expressed in CHO cells assessed as inhibition of DAMGO-stimulated [35S]GTPgammaS binding. Format: functional, cell-based. For orientation: GTPγS resists hydrolysis and so accumulates on activated G proteins.
Experiment [5] concerns the target T2, Kappa-type opioid receptor. As to the kind of experiment: Antagonist activity at human kappa opioid receptor expressed in CHO cells assessed as inhibition of U69,593-stimulated [35S]GTPgammaS binding. Format: functional, cell-based.
Experiment [6] addresses T3, Delta-type opioid receptor. In words: Antagonist activity at human delta opioid receptor expressed in CHO cells assessed as inhibition of DPDPE-stimulated [35S]GTPgammaS binding. Format: functional, cell-based.

T3 sequence (P41143 whole entry): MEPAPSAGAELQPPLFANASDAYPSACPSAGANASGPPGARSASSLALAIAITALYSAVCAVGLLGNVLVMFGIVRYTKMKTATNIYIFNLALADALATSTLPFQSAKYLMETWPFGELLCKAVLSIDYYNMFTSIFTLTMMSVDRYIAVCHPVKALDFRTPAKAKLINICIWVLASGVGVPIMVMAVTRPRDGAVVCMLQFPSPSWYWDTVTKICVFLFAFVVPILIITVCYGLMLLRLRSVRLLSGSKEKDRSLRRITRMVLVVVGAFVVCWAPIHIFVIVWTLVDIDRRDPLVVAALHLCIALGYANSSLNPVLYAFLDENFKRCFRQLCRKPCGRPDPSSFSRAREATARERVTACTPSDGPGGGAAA
T2 sequence (P41145 whole entry): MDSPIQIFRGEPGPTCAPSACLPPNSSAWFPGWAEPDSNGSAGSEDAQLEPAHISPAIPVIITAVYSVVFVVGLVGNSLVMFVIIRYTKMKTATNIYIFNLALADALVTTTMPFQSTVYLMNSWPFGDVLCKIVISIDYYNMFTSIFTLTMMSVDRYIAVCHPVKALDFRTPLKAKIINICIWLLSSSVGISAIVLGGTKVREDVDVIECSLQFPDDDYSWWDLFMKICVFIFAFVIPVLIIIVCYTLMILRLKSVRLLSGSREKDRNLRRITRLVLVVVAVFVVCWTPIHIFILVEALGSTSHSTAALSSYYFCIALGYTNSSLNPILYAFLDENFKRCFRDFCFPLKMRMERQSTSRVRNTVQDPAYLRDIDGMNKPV
T1 sequence (P35372 whole entry): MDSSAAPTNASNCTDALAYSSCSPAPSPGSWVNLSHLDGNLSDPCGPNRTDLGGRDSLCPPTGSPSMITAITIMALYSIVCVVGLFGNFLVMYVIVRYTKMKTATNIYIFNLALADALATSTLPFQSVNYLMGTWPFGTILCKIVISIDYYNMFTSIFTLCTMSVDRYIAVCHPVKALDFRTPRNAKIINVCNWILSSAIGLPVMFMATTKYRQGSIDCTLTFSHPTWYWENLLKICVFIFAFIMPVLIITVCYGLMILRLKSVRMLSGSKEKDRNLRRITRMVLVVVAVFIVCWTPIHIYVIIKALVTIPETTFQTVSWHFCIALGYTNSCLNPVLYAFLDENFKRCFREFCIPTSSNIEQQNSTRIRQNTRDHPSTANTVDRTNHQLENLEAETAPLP

A word on the Ki: it is a dissociation constant, usually derived from enzyme kinetics or from competition with a known ligand. By Kb is commonly meant the affinity of an antagonist, worked out from how it opposes an agonist. Turning to `C[C@H]1CN(CC[C@H](O)C2CCCCC2)CC[C@@]1(C)c1ccccc1`, the figures for the Ki (on Mu-type opioid receptor [1]; in experiment [2]; in experiment [3]) were 7.7 nM, 749 nM and 169 nM, respectively. The Kb at Mu-type opioid receptor [4] came to 1.6 nM; in experiment [5], 40.6 nM; in experiment [6] it was 47.1 nM.
